Our source for the CC50 and IC50 values is PMC6321509, “Search of Allosteric Inhibitors and Associated Proteins of an AKT-like Kinase from Trypanosoma cruzi” (International Journal of Molecular Sciences, 2018).

Common to all, as to assay type: cell-based
A short description of one series: in vitro. To be noted: MTT, read-out: LC50 lethal concentration on human monocyte-derived macrophages (hMDMD). Here is the method: The cytotoxicity of the compounds was evaluated according to the ability to kill macrophages derived from human monocytes (hMDM) by the […] method, following the procedures performed by Pastrana Restrepo et al.. The hMDM were obtained from 50 mL of desfribrinated whole blood from healthy donors. These samples were mixed in a 1:1 ratio with Dulbecco PBS free of calcium and magnesium (DPBS). The mixture was centrifuged in a Ficoll Hypaque 1077 density gradient in a 1:3 ratio (blood–Ficoll) for separation of mononuclear cells, centrifuging at 2000 rpm for 20 min at 37 °C. The mononuclear cell layer was separated and these cells were washed twice with a solution of DPBS centrifuged at 13000 rpm for 10 min. After the last wash, the cells were resuspended in an RPMI medium with 10% autologous serum at a concentration of 0.3 × 10^6 cells/mL. Then, 1 mL of cells was placed in each well of 24-well culture dishes and incubated at 37 °C, 5% CO2 for 72 h to allow the differentiation of monocytes to macrophages. For the MTT test, the hMDM were adjusted to a concentration of 0.5 × 10^6 cells/mL in the RPMI medium supplemented with 10% FBS, and the concentration of the compound in the culture was adjusted (four serial dilutions starting at 200 μM). Amphotericin B and Doxorubicin were used as controls for the determination of cytotoxicity. Each experiment was performed in triplicate.
In this case, the in vitro cytotoxicity was defined by the decrease in the cell viability and growth, obtained from the OD for each experimental condition, using the following formula: (%) viability inhibition = […], where the OD of untreated cells corresponds to 100% of the viability. Growth inhibition percentage data obtained for each experimental condition were used to calculate the half lethal concentration (LC50) by the Probit analysis.
The cytotoxicity of each compound was rated according to its LC50. […]

In the next series the test system is Leishmania braziliensis. The experiment in a line: In vitro experiments on Leishmania braziliensis. The following applies: mean ± SD.
The next series has as its system T. cruzi amastigote. The series can be described thus: In vitro antitrypanosomal activity, amastigotes in U937 macrophages (β-galactosidase Tulahuen strain). To be noted: Trypanosoma cruzi, U-937; infected U937 macrophages, 72 h; mean ± SD; read-out: IC50 inhibitory concentration of T. cruzi amastigote. Here is the method: A human promonocitic U937 line was cultivated in RPMI-1640 medium with 10% fetal bovine serum (FBS) at a concentration of 0.25 × 10^6 cells/mL; the cells were transformed into macrophages by being incubated with phorbol 12-myristate 13-acetate (PMA) at 0.1 µg/mL. To adhere the cells, 0.1 mL of cells was added in 96-well dishes. Adherence was carried out for 72 h, and then epimastigote were added in the stationary phase of the Tulahuen strain producing β-galactosidase, at 5 parasite/cellU937 concentrations for 24 h at 37 °C with 5% CO2. To calculate the IC50 (Table 2), different concentrations of the compounds to evaluate and Benznidazole were added at an initial concentration of 20 µg/mL and 6 serial dilutions were made as a control of the effectiveness of the experiment, in addition to the control of the viability of the parasites (cells without drug treatment), from the blank of the culture medium (medium without cells), in duplicate. The cells were incubated for 72 h at 37 °C with 5% of CO2. […] The colorimetric reaction was read at 570 nm and optical densities (OD) for each experimental condition were registered. […] The half inhibitory concentration (IC50) was calculated by the Probit method using the % of inhibition for each concentration. […]

Where two headings read alike, the source gives them in different places.

With `C[C@@H]1[C@H](O)[C@@H](C)/C=C/C=C/C=C/C=C/C=C/C=C/C=C/[C@H](O[C@@H]2O[C@H](C)[C@@H](O)[C@H](N)[C@@H]2O)C[C@@H]2O[C@](O)(C[C@@H](O)C[C@@H](O)[C@H](O)CC[C@@H](O)C[C@@H](O)CC(=O)O[C@H]1C)C[C@H](O)[C@H]2C(=O)O` [Amphotericin B], in “in vitro” (mean ± SD), the CC50 was determined as 49.8 ± 6.82 µM. The same compound yielded an IC50 with Leishmania braziliensis of 300 ± 70 nM. In the case of `COc1cccc2c1C(=O)c1c(O)c3c(c(O)c1C2=O)C[C@@](O)(C(=O)CO)C[C@@H]3O[C@H]1C[C@H](N)[C@H](O)[C@H](C)O1` [Doxorrubicin, Doxorubicin], in “in vitro” (mean ± SD), the CC50 was determined as 3.91 ± 0.4 µM. Regarding `O=C(Cn1ccnc1[N+](=O)[O-])NCc1ccccc1` [Benznidazole], in the series “in vitro”, the CC50 was more than 200 µg/mL. Besides, the IC50 in the series on T. cruzi amastigote was found to be 16.6 ± 4 µM.
